Assay results: PMC11984586, “A novel spider toxin as a selective antagonist of the Kv1 subfamily of voltage-gated potassium channels through gating modulation” (The Journal of Biological Chemistry, 2025)
Where two headings read alike, the source gives them in different places. Bridge positions count the residues as written; N and C are the ends. Peptide text beside a SMILES is read from it.

Key:
Assay type in all cases: cell-based
Kv1.3/Q355E = biological target: T1, Kv1.3/Q355E (Homo sapiens, UniProt P22001, Q355E); assay: Whole-cell patch clamp, Kv1.3 point mutant; conditions: +30 mV stimulus, mean ± SD, n = 5, read-out: IC50, Kv1.3/Q355E current
T1 construct: expressed in transfected cells; host or cells: CHO-K1
Excerpt: (§1) In contrast, differences at positions 347, 355, and 358 between Kv1.3 and Kv1.1 prompted further analysis. To explore whether these discrepancies influence peptide-mediated inhibition, we substituted these residues in Kv1.3 with their homologous counterparts in Kv1.1 and assessed the MrVIII's inhibitory efficacy on these single-point mutants. […] To further investigate this, we introduced double adjacent mutations around Q355 and M358 in Kv1.3 to explore potential synergistic effects on MrVIII's inhibitory activity.
(§2) The cDNA of hKv1.1, hKv1.2, hKv1.3, rKv1.4, hKv1.5, mKv1.6, and hKv1.7 were subcloned into mammalian expression vectors pcDNA3.1 or pCMV-blank vectors, as well as other plasmids described previously ([35]). Channel mutants were generated by site-directed mutations. Briefly, the parental channel plasmid was amplified using a pair of oppositely directed primers harboring the designed mutation site, with KOD Fx (TOYOBO Co, Ltd). The resulting PCR mix was treated with FastDigest DpnI (Thermo Fisher Scientific) to remove the methylated template. Ten microliters of the digested product was then used to transform 100 μl E. coli DH5α competent cells. […]
(§3) CHO-K1 cells were selected for expressing Kv channels due to their lack of endogenous Kv channels, while HEK293 or ND7/23 cells were used for Nav and Cav channel expression. […] After 4 to 6 h transfection, cells were seeded onto poly-lysine–coated coverslips, and 24 to 36 h later, transfected cells were ready for patch-clamp analysis. […]
(§4) For Kv current recordings, the bath solution contained (in mM) the following: 140 NaCl, 5 KCl, 1 MgCl2, 2 CaCl2, 10 glucose, and 10 Hepes (pH 7.3, adjusted with NaOH), and the pipette solution contained (in mM) the following: 140 KCl, 2.5 MgCl2, 11 EGTA, and 10 Hepes (pH 7.3, adjusted with KOH). […] Whole cell conductance (G) at each depolarizing voltage (V) was determined using the equation: G = I/(V−Vrev), where I is the current amplitude, and Vrev is the reversal potential. […] The steady-state fast inactivation of Kv1.3 was measured using a two-pulses protocol. […]

Kv1.3/L347I = biological target: T2, Kv1.3/L347I (Homo sapiens, UniProt P22001, L347I); assay: Whole-cell patch clamp, Kv1.3 point mutant; conditions: +30 mV stimulus, mean ± SD, n = 5, read-out: IC50, Kv1.3/L347I current
T2 construct: expressed in transfected cells; host or cells: CHO-K1
Excerpt: as §1, §2, §3, §4

Kv1.3/M358T = biological target: T3, Kv1.3/M358T (Homo sapiens, UniProt P22001, M358T); assay: Whole-cell patch clamp, Kv1.3 point mutant; conditions: +30 mV stimulus, mean ± SD, n = 5, read-out: IC50, Kv1.3/M358T current
T3 construct: expressed in transfected cells; host or cells: CHO-K1
Excerpt: as §1, §2, §3, §4

hKv1.3 = biological target: T4, hKv1.3 (Homo sapiens, UniProt P22001); assay: Whole-cell patch clamp, Kv1.3 ionic current in CHO-K1 cells; conditions: mean ± SD; for IC50: 500 ms depolarization to +30 mV from −80 mV holding, CHO-K1, room temperature
T4 construct: expressed in transfected cells; host or cells: CHO-K1
Protocol: The cDNA of hKv1.1, hKv1.2, hKv1.3, rKv1.4, hKv1.5, mKv1.6, and hKv1.7 were subcloned into mammalian expression vectors pcDNA3.1 or pCMV-blank vectors, as well as other plasmids described previously ([35]). Channel mutants were generated by site-directed mutations. Briefly, the parental channel plasmid was amplified using a pair of oppositely directed primers harboring the designed mutation site, with KOD Fx (TOYOBO Co, Ltd). The resulting PCR mix was treated with FastDigest DpnI (Thermo Fisher Scientific) to remove the methylated template. Ten microliters of the digested product was then used to transform 100 μl E. coli DH5α competent cells. Transformants were randomly picked and sequenced to confirm the presence of the intended mutation.
CHO-K1 cells were selected for expressing Kv channels due to their lack of endogenous Kv channels, while HEK293 or ND7/23 cells were used for Nav and Cav channel expression. CHO-K1 cells were cultured in a Dulbecco's modified Eagle's medium/Ham's F-12 nutrient mixture (DMEM-F12) medium, and HEK293T and ND7/23 cells in DMEM medium, all supplemented with 10% fetal bovine serum and 1% penicillin-streptomycin (all from Gibco, Thermo Fisher Scientific, Inc) under standard conditions (37 °C, 5% CO2, and saturated humidity). These cell lines were purchased from Stem Cell Bank, Chinese Academy of Sciences. Channel plasmids were cotransfected with pEGFP-N1 (encoding GFP) into the respective cells using lipofectamine 2000, following the manufacturer's instructions (Invitrogen, Thermo Fisher Scientific, Inc.). Nav1.9-GFP plasmid was transfected into ND7/23 using the X-tremeGENE HP DNA Transfection Reagent (Roche). After 4 to 6 h transfection, cells were seeded onto poly-lysine–coated coverslips, and 24 to 36 h later, transfected cells were ready for patch-clamp analysis.
Patch clamp experiments were conducted using an electrophysiology platform comprising a MultiClamp 700B amplifier and an Axon Digidata 1550 AD/DA convertor (Axon Instruments). Data acquisition was performed with pClamp 10.5 software (Axon Instruments). All experiments were performed at room temperature.
For Kv current recordings, the bath solution contained (in mM) the following: 140 NaCl, 5 KCl, 1 MgCl2, 2 CaCl2, 10 glucose, and 10 Hepes (pH 7.3, adjusted with NaOH), and the pipette solution contained (in mM) the following: 140 KCl, 2.5 MgCl2, 11 EGTA, and 10 Hepes (pH 7.3, adjusted with KOH). Series resistance was maintained below 10 MΩ and compensated to 80%. Concentration–response curves were fitted by the Hill equation to determine the toxin's potency. Whole cell conductance (G) at each depolarizing voltage (V) was determined using the equation: G = I/(V−Vrev), where I is the current amplitude, and Vrev is the reversal potential. The reversal potential for K^+ current was estimated to be −85.6 mV using the Nernst equation. G-V curves were obtained by plotting the normalized conductance as a function of V and fitted by the Boltzmann equation: y = 1/(1+ exp((Va-V)/k)), which Va is the midpoint voltage, V is the test potential, and k is the slope factor. The steady-state fast inactivation of Kv1.3 was measured using a two-pulses protocol. The cell was held at −120 mV, and a train of conditional voltages (−120–40 mV in 10 mV increments, 60 s) were applied to induce channel inactivation, followed by a +60 mV test pulse (300 ms) to assess the proportion of noninactivated channels. The sweep interval was set to 30 s. Currents at the test pulse (I) were normalized to the maximum value (Imax) and plotted as a function of the conditional voltage (V). The curve was fitted by the Boltzmann equation: I/Imax = A+(1 − A)/(1+exp ((V−Vh)/K)), where Vh is the half-maximum inactivation voltage, A represents the minimum channel availability, and k is the slope factor.

T4 sequence (P22001 whole entry): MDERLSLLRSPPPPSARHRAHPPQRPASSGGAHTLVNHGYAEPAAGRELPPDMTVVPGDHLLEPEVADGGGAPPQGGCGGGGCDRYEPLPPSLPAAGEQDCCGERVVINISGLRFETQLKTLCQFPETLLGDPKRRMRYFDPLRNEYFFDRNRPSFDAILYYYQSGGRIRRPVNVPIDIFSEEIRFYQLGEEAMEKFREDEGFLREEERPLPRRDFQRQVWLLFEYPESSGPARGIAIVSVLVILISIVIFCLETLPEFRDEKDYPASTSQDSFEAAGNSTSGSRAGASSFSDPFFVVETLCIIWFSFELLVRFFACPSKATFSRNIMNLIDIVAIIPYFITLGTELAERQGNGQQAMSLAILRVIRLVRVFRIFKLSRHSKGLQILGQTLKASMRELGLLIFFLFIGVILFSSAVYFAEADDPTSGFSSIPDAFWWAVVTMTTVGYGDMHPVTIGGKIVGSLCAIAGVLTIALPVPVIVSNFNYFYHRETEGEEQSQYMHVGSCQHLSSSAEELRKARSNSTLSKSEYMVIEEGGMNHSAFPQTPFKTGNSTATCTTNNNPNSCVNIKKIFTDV
T1 sequence (P22001 whole entry Q355E): as the sequence (P22001 whole entry) above, with Q355E counted along it
T2 sequence (P22001 whole entry L347I): as the sequence (P22001 whole entry) above, with L347I counted along it
T3 sequence (P22001 whole entry M358T): as the sequence (P22001 whole entry) above, with M358T counted along it

CC[C@H](C)[C@@H]1NC(=O)[C@H](Cc2ccc(O)cc2)NC(=O)[C@H](CCC(N)=O)NC(=O)[C@@H]2CCCN2C(=O)[C@@H]2CSSC[C@H](NC(=O)[C@H](C)NC(=O)[C@H](CO)NC(=O)[C@H](CCC(=O)O)NC(=O)[C@H](CCC(=O)O)NC(=O)[C@@H](N)[C@@H](C)O)C(=O)NCC(=O)NCC(=O)N[C@@H](Cc3ccccc3)C(=O)N[C@@H](CC(N)=O)C(=O)N[C@@H](C)C(=O)N[C@@H](CCCNC(=N)N)C(=O)N[C@H]3CSSC[C@H](NC1=O)C(=O)N[C@@H](CCCCN)C(=O)NCC(=O)N[C@@H](Cc1c[nH]c4ccccc14)C(=O)N[C@@H](CCCNC(=N)N)C(=O)N[C@@H]([C@@H](C)O)C(=O)N[C@@H](CCCCN)C(=O)N[C@@H](CCCNC(=N)N)C(=O)N[C@H](C(=O)N[C@@H](CC(C)C)C(=O)N[C@@H](CC(N)=O)C(=O)N1CCC[C@H]1C(=O)O)CSSC[C@H](NC(=O)[C@H](CCCCN)NC(=O)[C@H](Cc1c[nH]cn1)NC(=O)[C@H](CC(C)C)NC(=O)[C@@H]1CCCN1C3=O)C(=O)N2 [MrVIII] (H-TEESACGGFNARCPLHKCCPQYICKGWRTKRCLNP-OH; disulfide 6-19, 13-24, 18-32; N-terminus and C-terminus assumed)
IC50 (Kv1.3/Q355E): 14.2 ± 7.2 nM | IC50 (Kv1.3/L347I): 14.2 ± 0.8 nM | IC50 (Kv1.3/M358T): 143 ± 33 nM | Va of G-V curve of Kv1.3 after toxin (hKv1.3; 5 nM MrVIII, control Va = −26.4 ± 4.6 mV, Boltzmann fit): −27.7 ± 5.1 mV | Vh of steady-state inactivation of Kv1.3 after toxin (hKv1.3; 5 nM MrVIII, control Vh = −42.2 ± 4.7 mV, two-pulse protocol): −42.5 ± 2.4 mV | time constant for toxin association, Kv1.3 (hKv1.3; 10 nM MrVIII, n = 6): 5.4 ± 1.2 s | IC50 (hKv1.3; native toxin, n = 7, read-out: IC50, inhibition of Kv1.3 peak current): 4.4 ± 1.1 nM | IC50 (hKv1.3; synthetic refolded toxin, n = 7, read-out: IC50, inhibition of Kv1.3 current): 4.8 ± 1.6 nM | time constant for dissociation from Kv1.3 (hKv1.3; washout with bath solution after 10 nM MrVIII, n = 6): 33.4 ± 8.3 s
